Values of other authors, collected in patent US7056909B2, “Alpha v integrin receptor antagonists” (Merck & Co., Inc., priority 2000, dated 2006).

Details: postmenopausal osteoporotic women, median of 22 months of treatment

hPTH(1–34): human parathyroid hormone 1-34 fragment (SVSEIQLMHNLGKHLNSMERVEWLRKKLQDVHNF; Parathyroid hormone; UniProt P01270 32-65, looked up, fragment)
reduction in nonvertebral fractures: 54% | reduction in spine fractures: ≥ 65%
